# System: Cynomolgus monkey corneal endothelial cells
# Assay: Western blot of Na+/K+-ATPase and ZO-1 in monkey corneal endothelial cells (Example 3)
# Type: cell-based
# Conditions: monkey CEC treated with SB431542 vs fibroblast phenotype control
# Procedure: Next, reaction was allowed for 1 hour at a room temperature with ALEXA FLUOR 488 (INVITROGEN (catalog number: A21206)) and ALEXA FLUOR 594 (INVITROGEN (catalog number: A21203)), diluted with TBS-T by 1,000 fold. After washing with PBS, the sample was encapsulated with VECTASHIELD WITH DAPI (VECTOR LABORATORIES (catalog number: 94010)) onto a slide, followed by observation through confocal microscope (Leica). • Western blot technique: protein extracted by RIPA buffer was electrophoresed with 7.5% polyacrylamide. The separated protein was transferred to a PVDF film (PALL LIFE SCIENCE (catalog number: EH-2222)). […] After washing, bands were detected using an ECL-ADVAVCE Western Blotting Detection Kit (GE healthcare Japan (catalog number: RPN2135V)). […]
# P-40 (Nacalai Tesque, catalog number: 23640-94), 0.5% sodium deoxycholate (Nacalai Tesque, catalog number:10712-12), and 0.1% SDS (Nacalai Tesque, catalog number:31607-65)). Thus obtained cell lysate was centrifuged (15,000 rpm, 10 minutes), the supernatant thereof was collected, and the protein was quantitated using a BCA PROTEIN ASSAY KIT (PIERCE, catalog number: 23227). […]
smiles,measurement,value
NC(=O)c1ccc(-c2nc(-c3ccc4c(c3)OCO4)c(-c3ccccn3)[nH]2)cc1 [SB431542],"expression of Na+/K+-ATPase and ZO-1, protein level (Western blot)",strongly enhanced
